Laboratory results reported in PubChem BioAssay AID222 (DTP/NCI, 2004).
Several values for one entry are separate records, joined by “and”; a condition that tells them apart may be missing. Identical values can stand only once. Inconclusive results and toxic doses are left out. Rule for the calls: active = survival T/C of 150% or more; inactive = T/C below 125% in these data.

Tested on: C57BL/6 mice, intracerebral ependymoblastoma, median survival T/C
Experiment: NCI In Vivo Anticancer Drug Screen. Data for tumor model Ependymoblastoma (intracerebral) in C57BL/6 mice
Conditions: endpoint: median survival time, higher = longer survival
Description: The antitumor activity of compounds was measured in mice bearing transplantable tumors. Survival or tumor size were measured and the results are expressed as the measurement made in the treated group (T) divided by the measurement made in the vehicle treated control group (C). The tumor model used in this assay is Ependymoblastoma (intracerebral) in C57BL/6 mice

[1] = dose: 12.5 mg/kg/injection, schedule: Q01DX005 (ip), vehicle: saline with Tween-80
[2] = dose: 25.0 mg/kg/injection, schedule: Q01DX005 (ip), vehicle: saline with Tween-80
[3] = dose: 50.0 mg/kg/injection, schedule: Q01DX005 (ip), vehicle: saline with Tween-80
[4] = dose: 100.0 mg/kg/injection, schedule: Q01DX005 (ip), vehicle: saline with Tween-80
[5] = dose: 8.0 mg/kg/injection, schedule: Q01DX005 (ip), vehicle: Klucel (hydroxypropylcellulose) (HPC)
[6] = dose: 16.0 mg/kg/injection, schedule: Q01DX005 (ip), vehicle: Klucel (hydroxypropylcellulose) (HPC)
[7] = dose: 90.0 mg/kg/injection, schedule: Q01DX005 (ip), vehicle: saline with Tween-80
[8] = dose: 180.0 mg/kg/injection, schedule: Q01DX005 (ip), vehicle: saline with Tween-80
[9] = dose: 32.0 mg/kg/injection, schedule: Q01DX005 (ip), vehicle: Klucel (hydroxypropylcellulose) (HPC)
[10] = dose: 64.0 mg/kg/injection, schedule: Q01DX005 (ip), vehicle: Klucel (hydroxypropylcellulose) (HPC)
[11] = dose: 128.0 mg/kg/injection, schedule: Q01DX005 (oral), vehicle: Klucel (hydroxypropylcellulose) (HPC)
[12] = dose: 200.0 mg/kg/injection, schedule: Q01DX005 (ip), vehicle: saline with Tween-80

Measured: T/C

COc1cc(C[C@H]2c3cc(OC)c(OC)cc3CCN2C)c(Oc2cc3c(cc2OC)-c2c(OC)c(OC)cc4c2[C@H](C3)N(C)CC4)cc1OC
inactive: [1] 97 % of control | [2] 92 % of control | [3] 100 % of control | [4] 93 % of control

Nc1nncs1
inactive: dose: 7.5 mg/kg/injection, schedule: Q01DX009 (ip), vehicle: Klucel (hydroxypropylcellulose) (HPC) 112 % of control | dose: 15.0 mg/kg/injection, schedule: Q01DX009 (ip), vehicle: Klucel (hydroxypropylcellulose) (HPC) 117 % of control | dose: 64.0 mg/kg/injection, schedule: Q01DX005 (ip), vehicle: saline with Tween-80 102 % of control

COC1C(CO)OC(n2cnc3c(=S)nc(N)[nH]c32)C1O (stereo not drawn)
inactive: dose: 100.0 mg/kg/injection, schedule: Q01DX005 (ip), vehicle: Klucel (hydroxypropylcellulose) (HPC) 91 % of control

O=C(O)CCCc1ccc(N(CCCl)CCCl)cc1
inactive: dose: 0.12 mg/kg/injection, schedule: Q01DX005 (ip), vehicle: Klucel (hydroxypropylcellulose) (HPC) 115 % of control | dose: 0.25 mg/kg/injection, schedule: Q01DX005 (ip), vehicle: Klucel (hydroxypropylcellulose) (HPC) 110 % of control | dose: 1.0 mg/kg/injection, schedule: Q01DX005 (ip), vehicle: Klucel (hydroxypropylcellulose) (HPC) 100 % of control | dose: 2.0 mg/kg/injection, schedule: Q01DX001 (ip), vehicle: Klucel (hydroxypropylcellulose) (HPC) 100 % of control | dose: 2.0 mg/kg/injection, schedule: Q01DX005 (ip), vehicle: Klucel (hydroxypropylcellulose) (HPC) 100 % of control and 111 % of control and 120 % of control | dose: 4.0 mg/kg/injection, schedule: Q01DX001 (ip), vehicle: Klucel (hydroxypropylcellulose) (HPC) 106 % of control | dose: 4.0 mg/kg/injection, schedule: Q01DX005 (ip), vehicle: Klucel (hydroxypropylcellulose) (HPC) 107 % of control and 109 % of control and 122 % of control | dose: 8.0 mg/kg/injection, schedule: Q01DX001 (ip), vehicle: Klucel (hydroxypropylcellulose) (HPC) 105 % of control | [5] 109 % of control and 110 % of control and 122 % of control | [6] 96 % of control and 122 % of control

COc1cc2c(c(OC)c1OC)-c1ccc(OC)c(=O)cc1[C@@H](NC(C)=O)CC2
inactive: dose: 0.05 mg/kg/injection, schedule: Q01DX005 (ip), vehicle: saline 104 % of control | dose: 0.1 mg/kg/injection, schedule: Q01DX005 (ip), vehicle: saline 98 % of control | dose: 0.2 mg/kg/injection, schedule: Q01DX005 (ip), vehicle: saline 108 % of control | dose: 0.4 mg/kg/injection, schedule: Q01DX005 (ip), vehicle: saline 90 % of control | dose: 0.8 mg/kg/injection, schedule: Q01DX005 (ip), vehicle: saline 103 % of control

O=c1ccc2ccccc2o1
inactive: [7] 101 % of control | [8] 86 % of control | dose: 720.0 mg/kg/injection, schedule: Q01DX005 (ip), vehicle: saline with Tween-80 97 % of control

CCC(=O)O[C@H]1CC[C@H]2[C@@H]3[C@@H](C)CC4=CC(=O)CC[C@]4(C)[C@H]3CC[C@]12C
inactive: [9] 104 % of control | [10] 105 % of control and 106 % of control | dose: 128.0 mg/kg/injection, schedule: Q01DX001 (ip), vehicle: Klucel (hydroxypropylcellulose) (HPC) 106 % of control | dose: 128.0 mg/kg/injection, schedule: Q01DX005 (ip), vehicle: Klucel (hydroxypropylcellulose) (HPC) 105 % of control and 111 % of control | [11] 109 % of control | dose: 256.0 mg/kg/injection, schedule: Q01DX001 (ip), vehicle: Klucel (hydroxypropylcellulose) (HPC) 93 % of control | dose: 256.0 mg/kg/injection, schedule: Q01DX005 (ip), vehicle: Klucel (hydroxypropylcellulose) (HPC) 103 % of control and 113 % of control | dose: 256.0 mg/kg/injection, schedule: Q01DX005 (oral), vehicle: Klucel (hydroxypropylcellulose) (HPC) 97 % of control | dose: 512.0 mg/kg/injection, schedule: Q01DX001 (ip), vehicle: Klucel (hydroxypropylcellulose) (HPC) 103 % of control | dose: 512.0 mg/kg/injection, schedule: Q01DX005 (ip), vehicle: Klucel (hydroxypropylcellulose) (HPC) 105 % of control and 107 % of control | dose: 512.0 mg/kg/injection, schedule: Q01DX005 (oral), vehicle: Klucel (hydroxypropylcellulose) (HPC) 90 % of control | dose: 1024.0 mg/kg/injection, schedule: Q01DX001 (ip), vehicle: Klucel (hydroxypropylcellulose) (HPC) 96 % of control | dose: 1024.0 mg/kg/injection, schedule: Q01DX005 (oral), vehicle: Klucel (hydroxypropylcellulose) (HPC) 113 % of control

C(COCCOCC1CO1)OCCOCC1CO1 (stereo not drawn)
inactive: [3] 93 % of control | [4] 96 % of control | [12] 96 % of control | dose: 400.0 mg/kg/injection, schedule: Q01DX005 (ip), vehicle: saline with Tween-80 113 % of control

CCN(CC)CCOc1ccc(/C(=C(\Cl)c2ccccc2)c2ccccc2)cc1
inactive: [5] 97 % of control and 99 % of control | [6] 97 % of control and 108 % of control | [9] 95 % of control and 112 % of control | dose: 32.0 mg/kg/injection, schedule: Q01DX005 (oral), vehicle: Klucel (hydroxypropylcellulose) (HPC) 101 % of control | [10] 88 % of control and 95 % of control | dose: 64.0 mg/kg/injection, schedule: Q01DX005 (oral), vehicle: Klucel (hydroxypropylcellulose) (HPC) 104 % of control | [11] 96 % of control

Nc1ncnc2nc[nH]c12
inactive: dose: 128.0 mg/kg/injection, schedule: Q01DX005 (ip), vehicle: saline with Tween-80 92 % of control

Nc1nc(=S)c2ncn(C3OC(CO)CC3O)c2[nH]1 (stereo not drawn)
inactive: dose: 5.0 mg/kg/injection, schedule: Q01DX005 (ip), vehicle: saline 99 % of control | dose: 10.0 mg/kg/injection, schedule: Q01DX005 (ip), vehicle: saline 99 % of control

COc1cc2c3c(c1)-c1c(ccc(OC)c1OC)CC3N(CCN(CCCl)CCCl)CC2 (stereo not drawn)
inactive: dose: 4.0 mg/kg/injection, schedule: Q01DX005 (ip), vehicle: saline with Tween-80 101 % of control and 108 % of control | dose: 8.0 mg/kg/injection, schedule: Q01DX005 (ip), vehicle: saline with Tween-80 104 % of control and 105 % of control | dose: 16.0 mg/kg/injection, schedule: Q01DX005 (ip), vehicle: saline with Tween-80 108 % of control | dose: 32.0 mg/kg/injection, schedule: Q01DX005 (ip), vehicle: saline with Tween-80 110 % of control

Nc1ccc(S(=O)(=O)c2ccc(N)cc2)cc1
inactive: [1] 108 % of control | [2] 108 % of control | dose: 45.0 mg/kg/injection, schedule: Q01DX005 (ip), vehicle: saline with Tween-80 98 % of control and 102 % of control | [3] 87 % of control | [7] 96 % of control and 98 % of control | [4] 100 % of control | [8] 101 % of control and 87 % of control | [12] 86 % of control

NC(C/[N+]([O-])=N/O)C(=O)O (stereo not drawn)
inactive: dose: 7.0 mg/kg/injection, schedule: Q01DX005 (ip), vehicle: saline 119 % of control | dose: 14.0 mg/kg/injection, schedule: Q01DX005 (ip), vehicle: saline 119 % of control | dose: 56.0 mg/kg/injection, schedule: Q01DX005 (ip), vehicle: saline 95 % of control

CN(N=O)C(N)=O
inactive: dose: 2.5 mg/kg/injection, schedule: Q01DX001 (ip), vehicle: Klucel (hydroxypropylcellulose) (HPC) 120 % of control | dose: 5.0 mg/kg/injection, schedule: Q01DX001 (ip), vehicle: Klucel (hydroxypropylcellulose) (HPC) 124 % of control | dose: 80.0 mg/kg/injection, schedule: Q01DX001 (ip), vehicle: Klucel (hydroxypropylcellulose) (HPC) 97 % of control

CCN(CC)c1ccc2cc3ccc(=[N+](CC)CC)cc-3oc2c1
inactive: dose: 4.0 mg/kg/injection, schedule: Q01DX005 (ip), vehicle: saline 100 % of control | dose: 8.0 mg/kg/injection, schedule: Q01DX005 (ip), vehicle: saline 107 % of control
